Our source for the AC50 values is patent US10654828B2 (NOVARTIS AG, priority 2017, dated 2020).

Like-named read-outs stand apart in the source and are kept apart here.

In experiment [1] the test system is FoxO3a. Put plainly: FoxO3a inhibition: GFP-FoxO3a nuclear to cytoplasmic translocation reporter assay. It counts as cell-based. Conditions: U2OS GFP-FoxO3a H212R cells, serum starved overnight, compound 30 minutes, ratio of nuclear to cytosolic GFP intensity, DMSO control 0%, read-out: FoxO AC50. How it is done: (§1) Phosphorylation of AKT on S473 and FoxO3a nuclear to cytoplasmic translocation were used as readouts of PI3K/Akt/mTOR pathway activation downstream of growth factor signaling.
(§2) Reporter cell line. U2OS GFP-FoxO3a H212R reporter cell line was established by transducing U2OS cells with the retroviral plasmid pLEGFP-C1 containing FoxO3a H212R transgene and selecting for G418 resistant clones.
(§3) Reporter assay. U2OS GFP-FoxO3a H212R cells were plated in 384-well plates at 4000 cells per well in 30 microliters of McCoy's 5 A medium containing 10% FBS. On day 1 the cells were washed with serum free medium and serum starved overnight. On day 2 the cells were treated with different doses of the compounds for 30 minutes, fixed with 4% Paraformaldehyde for 1 hour and stained with Phospho-AKT (Ser473) antibody (Cell Signaling Technology, catalog #4060) overnight at 4 degrees Celsius. After nuclei staining with Hoechst 33342 (Life Technologies, catalog # H3570) the plates were imaged with InCell 2000 (GE Healthcare Bio-Sciences). FoxO3a inhibition activity is calculated as the ratio of nuclear to cytosolic GFP intensity in percent. AKT activation is measured as the total cellular intensity of Phospho-AKT antibody staining in percent. DMSO control is set as 0% activity.
(A reporter such as luciferase makes a cellular process visible.)

Experiment [2] concerns AKT. Put plainly: AKT activation: Phospho-AKT (Ser473) antibody staining in reporter cells. It counts as cell-based. Conditions: U2OS GFP-FoxO3a H212R cells, serum starved overnight, compound 30 minutes, total cellular intensity of Phospho-AKT (Ser473) staining, DMSO control 0%. The procedure: as §1, §2, §3

As a reminder, the AC50 is the concentration at which the activity in the assay is half-maximal. For the molecule `Cc1cc(C(N)=O)nn1-c1ccc2c(ccn2Cc2ccc(C3CCN(C)CC3(C)C)cc2)c1` (single isomer, unassigned) [Example 16-3, 5-methyl-1-(1-(4-(1,3,3-trimethylpiperidin-4-yl)benzyl)-1H-indol-5-yl)-1H-pyrazole-3-carboxamide], the half-maximal activity concentration (AC50) came out at 1040 nM in experiment [1] and 3190 nM in experiment [2].
In the case of `COc1cc(-c2ccc(Cn3ccc4cc(-n5nc(C(N)=O)cc5C)ccc43)cc2)ccn1` [Example 1-24, 1-(1-(4-(2-methoxypyridin-4-yl)benzyl)-1H-indol-5-yl)-5-methyl-1H-pyrazole-3-carboxamide], the half-maximal activity concentration (AC50) in experiment [1] (Homo sapiens, U2OS, 0.5 h) worked out at 123 nM; in experiment [2] (Homo sapiens, U2OS, 0.5 h), 349 nM.
For `Cc1nc(C(N)=O)nn1-c1ccc2c(ccn2Cc2ccc(-c3ccc(CN4CCCC4)cc3)cc2)c1` [Example 28, 5-methyl-1-(1-((4′-(pyrrolidin-1-ylmethyl)-[1,1′-biphenyl]-4-yl)methyl)-1H-indol-5-yl)-1H-1,2,4-triazole-3-carboxamide] the same measures were 87 nM and 251 nM.
For `Cc1cc(C(N)=O)nn1-c1ccc2c(ccn2Cc2ccc(-c3cnc(N)nc3)cc2)c1` [Example 1-29, 1-(1-(4-(2-aminopyrimidin-5-yl)benzyl)-1H-indol-5-yl)-5-methyl-1H-pyrazole-3-carboxamide] the same measures were 340 nM and 774 nM.
For `Cc1cc(C(N)=O)nn1-c1ccc2c(ccn2Cc2ccc(CC3CCN(C)C3)cc2)c1` (racemic) [Example 31, rac-5-methyl-1-(1-(4-((1-methylpyrrolidin-3-yl)methyl)benzyl)-1H-indol-5-yl)-1H-pyrazole-3-carboxamide] the same measures were 350 nM and 747 nM.
For `Cc1cc(C(N)=O)nn1-c1ccc2c(ccn2Cc2ccc(C3=CCC4(CC3)CN(C)C4)cc2)c1` [Example 15-3, 5-methyl-1-(1-(4-(2-methyl-2-azaspiro[3.5]non-6-en-7-yl)benzyl)-1H-indol-5-yl)-1H-pyrazole-3-carboxamide], the AC50 in experiment [1] (Homo sapiens, U2OS, 0.5 h) was 96 nM; in experiment [2] (Homo sapiens, U2OS, 0.5 h), 398 nM.
For `Cc1cc(C(N)=O)nn1-c1ccc2c(ccn2Cc2ccc(-c3ccc(S(=O)(=O)N4CCN(C)CC4)cc3)cc2)c1` [Example 1-11, 5-methyl-1-(1-((4′-((4-methylpiperazin-1-yl)sulfonyl)-[1,1′-biphenyl]-4-yl)methyl)-1H-indol-5-yl)-1H-pyrazole-3-carboxamide] the same measures were 69 nM and 388 nM.
For `Cc1cc(C(N)=O)nn1-c1ccc2c(ccn2Cc2ccc(-c3ccc4cc[nH]c4c3)cc2)c1` [Example 1-21, 1-(1-(4-(1H-indol-6-yl)benzyl)-1H-indol-5-yl)-5-methyl-1H-pyrazole-3-carboxamide] the same measures were 420 nM and 2970 nM.
With `Cc1cc(C(N)=O)nn1-c1ccc2c(ccn2Cc2ccc(C3=C[C@H]4CNC[C@H]4C3)cc2)c1` (racemic) [Example 24, (cis)-1-(1-(4-(1,2,3,3a,4,6a-hexahydrocyclopenta[c]pyrrol-5-yl)benzyl)-1H-indol-5-yl)-5-methyl-1H-pyrazole-3-carboxamide], the AC50 in experiment [1] (Homo sapiens, U2OS, 0.5 h) came to 381 nM; in experiment [2] (Homo sapiens, U2OS, 0.5 h), 1200 nM.
As to `Cc1cc(C(N)=O)nn1-c1ccc2c(ccn2Cc2ccc(-c3ccc(C(C)(C)O)nc3)cc2)c1` [Example 30-3, 1-(1-(4-(6-(2-hydroxypropan-2-yl)pyridin-3-yl)benzyl)-1H-indol-5-yl)-5-methyl-1H-pyrazole-3-carboxamide], the AC50 in experiment [1] (Homo sapiens, U2OS, 0.5 h) worked out at 126 nM; in experiment [2] (Homo sapiens, U2OS, 0.5 h), 572 nM.
For `Cc1cc(C(N)=O)nn1-c1ccc2c(ccn2Cc2ccc(-c3cnc4[nH]ccc4c3)cc2)c1` [Example 1-16, 1-(1-(4-(1H-pyrrolo[2,3-b]pyridin-5-yl)benzyl)-1H-indol-5-yl)-5-methyl-1H-pyrazole-3-carboxamide] the same measures were 147 nM and 451 nM.
Regarding `Cc1cc(C(N)=O)nn1-c1ccc2c(c1)c(CCCO)cn2Cc1ccc(-c2ccc(S(C)(=O)=O)cc2)cc1` [Example 22, 1-(3-(3-hydroxypropyl)-1-((4′-(methylsulfonyl)-[1,1′-biphenyl]-4-yl)methyl)-1H-indol-5-yl)-5-methyl-1H-pyrazole-3-carboxamide], the AC50 in experiment [1] (Homo sapiens, U2OS, 0.5 h) amounted to 32 nM; in experiment [2] (Homo sapiens, U2OS, 0.5 h), 81 nM.
For `Cc1cc(C(N)=O)nn1-c1ccc2c(c1)c(C1=CCN(C)CC1)cn2Cc1ccc(-c2ccc(S(C)(=O)=O)cc2)cc1` [Example 19-2, 5-methyl-1-(3-(1-methyl-1,2,3,6-tetrahydropyridin-4-yl)-1-((4′-(methylsulfonyl)-[1,1′-biphenyl]-4-yl)methyl)-1H-indol-5-yl)-1H-pyrazole-3-carboxamide] the same measures were 346 nM and 1020 nM.
`Cc1cc(C(N)=O)nn1-c1ccc2c(ccn2Cc2ccc(N3CCNCC3)cc2)c1` [Example 11-1, 5-methyl-1-(1-(4-(piperazin-1-yl)benzyl)-1H-indol-5-yl)-1H-pyrazole-3-carboxamide]: the AC50 is 4080 nM in experiment [1] (Homo sapiens, U2OS, 0.5 h) and more than 10000 nM in experiment [2] (Homo sapiens, U2OS, 0.5 h).
For `Cc1cc(C(N)=O)nn1-c1ccc2c(ccn2Cc2ccc(-c3ccc4cn[nH]c4c3)cc2)c1` [Example 1-14, 1-(1-(4-(1H-indazol-6-yl)benzyl)-1H-indol-5-yl)-5-methyl-1H-pyrazole-3-carboxamide], the AC50 stood at 284 nM in experiment [1] (Homo sapiens, U2OS, 0.5 h) and 1050 nM in experiment [2] (Homo sapiens, U2OS, 0.5 h).
For `Cc1cc(C(N)=O)nn1-c1ccc2c(ccn2Cc2ccc(-c3ccc(CN4CCC[C@@H]4CO)cc3)cc2)c1` [Example 34-2, (R)-1-(1-((4′-((2-(hydroxymethyl)pyrrolidin-1-yl)methyl)-[1,1′-biphenyl]-4-yl)methyl)-1H-indol-5-yl)-5-methyl-1H-pyrazole-3-carboxamide] the same measures were 42 nM and 3 nM.
Consider `CC(=O)N1CC=C(c2ccc(Cn3ccc4cc(-n5nc(C(N)=O)cc5C)ccc43)cc2)CC1` [Example 1-4, 1-(1-(4-(1-acetyl-1,2,3,6-tetrahydropyridin-4-yl)benzyl)-1H-indol-5-yl)-5-methyl-1H-pyrazole-3-carboxamide], for which the AC50 in experiment [1] (Homo sapiens, U2OS, 0.5 h) came out at 121 nM; in experiment [2] (Homo sapiens, U2OS, 0.5 h), 252 nM.
Consider `COCCCc1cn(Cc2ccc(-c3ccc(S(C)(=O)=O)cc3)cc2)c2ccc(-n3nc(C(N)=O)cc3C)cc12` [Example 23, 1-(3-(3-methoxypropyl)-1-((4′-(methylsulfonyl)-[1,1′-biphenyl]-4-yl)methyl)-1H-indol-5-yl)-5-methyl-1H-pyrazole-3-carboxamide], for which the half-maximal activity concentration (AC50) in experiment [1] (Homo sapiens, U2OS, 0.5 h) was determined as 56 nM; in experiment [2] (Homo sapiens, U2OS, 0.5 h), 173 nM.
`Cc1cc(C(N)=O)nn1-c1ccc2c(ccn2Cc2ccc(-c3ccc(S(=O)(=O)CCN(C)C)cc3)cc2)c1` [Example 19-3, 1-(1-((4′-((2-(dimethylamino)ethyl)sulfonyl)-[1,1′-biphenyl]-4-yl)methyl)-1H-indol-5-yl)-5-methyl-1H-pyrazole-3-carboxamide]: the AC50 in experiment [1] (Homo sapiens, U2OS, 0.5 h) came to 99 nM; in experiment [2] (Homo sapiens, U2OS, 0.5 h), 128 nM.
For `Cc1nc(C(N)=O)nn1-c1ccc2c(ccn2Cc2ccc([C@@H]3C[C@@H]4CN(C)C[C@@H]4C3)cc2)c1` [Example 27, 5-methyl-1-(1-(4-((3aR,5r,6aS)-2-methyloctahydrocyclopenta[c]pyrrol-5-yl)benzyl)-1H-indol-5-yl)-1H-1,2,4-triazole-3-carboxamide] the same measures were 224 nM and 947 nM.
